Results as given in publication PMC3190963 (Journal of structural biology, 2011).

Target: human UPP1 (hUPP1) (Homo sapiens, UniProt Q16831)
Assay: absorbance change at […] nm, uridine to uracil
Format: biochemical
Settings: uridine and inorganic phosphate; reference for hUPP2 activity

human UPP1 (hUPP1), sequence (Q16831 whole entry): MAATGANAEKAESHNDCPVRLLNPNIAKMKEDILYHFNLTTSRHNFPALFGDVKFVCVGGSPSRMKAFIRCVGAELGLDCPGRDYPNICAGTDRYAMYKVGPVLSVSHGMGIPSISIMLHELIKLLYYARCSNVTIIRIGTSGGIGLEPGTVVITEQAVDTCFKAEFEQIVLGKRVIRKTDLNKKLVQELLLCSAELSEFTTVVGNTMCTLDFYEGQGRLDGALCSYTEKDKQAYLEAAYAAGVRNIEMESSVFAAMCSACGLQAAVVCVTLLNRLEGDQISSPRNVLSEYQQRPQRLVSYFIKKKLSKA

With `O=c1ccn([C@@H]2O[C@H](CO)[C@@H](O)[C@H]2O)c(=O)[nH]1` [uridine] the “absorbance change at 280 nm, uridine to uracil” value was “in vitro activity of recombinant hUPP2 and hUPP1 was compared”.
